{"source": "ChEMBL document CHEMBL3351982", "about": "“Microwave-assisted synthesis and biological evaluation of 3,4-diaryl maleic anhydride/N-substituted maleimide derivatives as combretastatin A-4 analogues” (Bioorg Med Chem Lett, 2015)", "key": {"[1]": {"assay": "Cytotoxicity against human SGC7901 cells assessed as cell growth inhibition after 72 hrs by MTT assay", "assay_type": "functional, cell-based", "conditions": "SGC-7901, 72 h"}, "[2]": {"assay": "Cytotoxicity against human HT1080 cells assessed as cell growth inhibition after 72 hrs by MTT assay", "assay_type": "functional, cell-based", "conditions": "HT-1080, 72 h"}, "KB": {"test_system": "KB", "assay": "Cytotoxicity against human KB cells assessed as cell growth inhibition after 72 hrs by MTT assay", "assay_type": "functional, cell-based"}, "Tubulin (Bos taurus)": {"target": "Tubulin (Bos taurus) (UniProt Q6B856+Q862L2+Q862F3)", "assay": "(§1) Inhibition of bovine brain tubulin polymerization"}, "Tubulin": {"target": "Tubulin (Bos taurus, UniProt Q6B856+Q862L2+Q862F3)", "assay": "as §1"}}}
{"smiles": "COc1ccc(C2=C(c3cc(OC)c(OC)c(OC)c3)C(=O)OC2=O)cc1O", "values": [{"measurement": "IC50", "setting": "[1]", "value": 27.9, "unit": "µM"}, {"measurement": "IC50", "setting": "[2]", "value": "> 30", "unit": "µM"}, {"measurement": "IC50", "setting": "KB", "value": "> 30", "unit": "µM"}]}
{"smiles": "COc1ccc(C2=C(c3cc(OC)c(OC)c(OC)c3)C(=O)OC2=O)cc1", "values": [{"measurement": "IC50", "setting": "[1]", "value": 13.2, "unit": "µM"}, {"measurement": "IC50", "setting": "[2]", "value": 16.5, "unit": "µM"}, {"measurement": "IC50", "setting": "KB", "value": 10.8, "unit": "µM"}]}
{"smiles": "COc1ccc(C2=C(c3cc(OC)c(OC)c(OC)c3)C(=O)N(O)C2=O)cc1O", "values": [{"measurement": "IC50", "setting": "[1]", "value": 4.5, "unit": "µM"}, {"measurement": "IC50", "setting": "[2]", "value": 2.4, "unit": "µM"}, {"measurement": "IC50", "setting": "KB", "value": 6.7, "unit": "µM"}]}
{"smiles": "COc1ccc(C2=C(c3cc(OC)c(OC)c(OC)c3)C(=O)N(OC)C2=O)cc1", "values": [{"measurement": "IC50", "setting": "[1]", "value": "> 30", "unit": "µM"}, {"measurement": "IC50", "setting": "[2]", "value": "> 30", "unit": "µM"}, {"measurement": "IC50", "setting": "KB", "value": "> 30", "unit": "µM"}]}
{"smiles": "COc1cc(C2=C(c3ccc4ccccc4c3)C(=O)N(O)C2=O)cc(OC)c1OC", "values": [{"measurement": "IC50", "setting": "[1]", "value": 16.5, "unit": "µM"}, {"measurement": "IC50", "setting": "[2]", "value": 6.4, "unit": "µM"}, {"measurement": "IC50", "setting": "KB", "value": 10.1, "unit": "µM"}]}
{"smiles": "COc1ccc(C2=C(c3cc(OC)c(OC)c(OC)c3)C(=O)N(C)C2=O)cc1", "values": [{"measurement": "IC50", "setting": "[1]", "value": 12.3, "unit": "µM"}, {"measurement": "IC50", "setting": "[2]", "value": 15.6, "unit": "µM"}, {"measurement": "IC50", "setting": "KB", "value": 14.2, "unit": "µM"}]}
{"smiles": "COc1ccc(C2=C(c3cc(OC)c(OC)c(OC)c3)C(=O)N(C)C2=O)cc1N", "values": [{"measurement": "IC50", "setting": "[1]", "value": 1.5, "unit": "µM"}, {"measurement": "IC50", "setting": "[2]", "value": 0.75, "unit": "µM"}, {"measurement": "IC50", "setting": "KB", "value": 1.3, "unit": "µM"}]}
{"smiles": "COc1cc(C2=C(c3ccc4ccccc4c3)C(=O)OC2=O)cc(OC)c1OC", "values": [{"measurement": "IC50", "setting": "[1]", "value": "> 30", "unit": "µM"}, {"measurement": "IC50", "setting": "[2]", "value": "> 30", "unit": "µM"}, {"measurement": "IC50", "setting": "KB", "value": "> 30", "unit": "µM"}]}
{"smiles": "COc1ccc(C2=C(c3cc(OC)c(OC)c(OC)c3)C(=O)OC2=O)cc1N", "values": [{"measurement": "IC50", "setting": "[1]", "value": 1.6, "unit": "µM"}, {"measurement": "IC50", "setting": "[2]", "value": 2.4, "unit": "µM"}, {"measurement": "IC50", "setting": "KB", "value": 2.3, "unit": "µM"}]}
{"smiles": "COc1ccc(C2=C(c3cc(OC)c(OC)c(OC)c3)C(=O)N(C)C2=O)cc1O", "values": [{"measurement": "IC50", "setting": "[1]", "value": 2.5, "unit": "µM"}, {"measurement": "IC50", "setting": "[2]", "value": 13.3, "unit": "µM"}, {"measurement": "IC50", "setting": "KB", "value": 3, "unit": "µM"}]}
{"smiles": "COc1cc(C2=C(c3ccc4ccccc4c3)C(=O)N(C)C2=O)cc(OC)c1OC", "values": [{"measurement": "IC50", "setting": "[1]", "value": 12.3, "unit": "µM"}, {"measurement": "IC50", "setting": "[2]", "value": 22.5, "unit": "µM"}, {"measurement": "IC50", "setting": "KB", "value": 16.7, "unit": "µM"}]}
{"smiles": "COc1ccc(C2=C(c3cc(OC)c(OC)c(OC)c3)C(=O)N(OC)C2=O)cc1O", "values": [{"measurement": "IC50", "setting": "[1]", "value": "> 30", "unit": "µM"}, {"measurement": "IC50", "setting": "[2]", "value": "> 30", "unit": "µM"}, {"measurement": "IC50", "setting": "KB", "value": "> 30", "unit": "µM"}]}
{"smiles": "COc1ccc(C2=C(c3cc(OC)c(OC)c(OC)c3)C(=O)N(OC)C2=O)cc1N", "values": [{"measurement": "IC50", "setting": "[1]", "value": "> 30", "unit": "µM"}, {"measurement": "IC50", "setting": "[2]", "value": "> 30", "unit": "µM"}, {"measurement": "IC50", "setting": "KB", "value": "> 30", "unit": "µM"}]}
{"smiles": "COc1cc(C2=C(c3ccc4ccccc4c3)C(=O)N(OC)C2=O)cc(OC)c1OC", "values": [{"measurement": "IC50", "setting": "[1]", "value": "> 30", "unit": "µM"}, {"measurement": "IC50", "setting": "[2]", "value": "> 30", "unit": "µM"}, {"measurement": "IC50", "setting": "KB", "value": "> 30", "unit": "µM"}]}
{"smiles": "COc1ccc(/C=C\\c2cc(OC)c(OC)c(OC)c2)cc1O", "note": "[COMBRETASTATIN A4]", "values": [{"measurement": "IC50", "setting": "[1]", "value": 0.028, "unit": "µM"}, {"measurement": "IC50", "setting": "[2]", "value": 0.008, "unit": "µM"}]}
{"smiles": "COc1ccc(C2=C(c3cc(OC)c(OC)c(OC)c3)C(=O)N(O)C2=O)cc1N", "values": [{"measurement": "IC50", "setting": "[1]", "value": 1.3, "unit": "µM"}, {"measurement": "IC50", "setting": "[2]", "value": 0.65, "unit": "µM"}, {"measurement": "IC50", "setting": "KB", "value": 1.1, "unit": "µM"}, {"measurement": "inhibition", "setting": "Tubulin (Bos taurus)", "value": "Dose-dependent effect"}, {"measurement": "IC50", "setting": "Tubulin", "value": 3, "unit": "µM"}]}
{"smiles": "COc1ccc(C2=C(c3cc(OC)c(OC)c(OC)c3)C(=O)N(O)C2=O)cc1", "values": [{"measurement": "IC50", "setting": "[1]", "value": 5.3, "unit": "µM"}, {"measurement": "IC50", "setting": "[2]", "value": 4.1, "unit": "µM"}, {"measurement": "IC50", "setting": "KB", "value": 5.6, "unit": "µM"}]}
